We go through 22 compounds from patent publication US8017791B2, “Tri-substituted 2-benzhydryl-5-benzylamino-tetrahydro-pyran-4-ol and 6-benzhydryl-4-benzylamino-tetrahydro-pyran-3-ol analogues, and novel, 3,6-disubstituted pyran derivatives” (Wayne State University, priority 2003, dated 2011).

For data set [1], the target named is T1, SERT (Rattus norvegicus, UniProt P31652).
T1 construct: rat striatum was the source for DAT, and cerebral cortex for SERT and NET; from tissue; host or cells: rat cerebral cortex
The data set is described as follows: Inhibition of [3H]citalopram binding to SERT. The settings on record: for SERT binding/DAT binding: Table 3, selectivity ratio of IC50 values. The protocol: (§1) Biology. […] Briefly, rat striatum was the source for DAT, and cerebral cortex for SERT and NET. […] Test compounds were dissolved in dimethyl sulfoxide (DMSO) and diluted out in 10% (v/v) DMSO. […] At least five triplicate concentrations of each test compound were studied, spaced evenly around the IC50 value. For DAT uptake assays, uptake of 50 nM [^3H]DA into rat striatal synaptosomes was measured exactly as described by us previously. Briefly, rat striatal P2 membrane fractions were incubated with test compounds for 8 min followed by the additional presence of [^3H]DA for 4 min at 25?. […] Construction of inhibition curves and dissolvement of test compounds were as described above.

Data set [2] concerns the target NET (Rattus norvegicus, UniProt Q9WTR4). The data set is described as follows: Inhibition of [3H]nisoxetine binding to NET. The protocol: as §1
The subject of data set [3] is NET. The data set is described as follows: Inhibition of [3H]nisoxetine binding to NET. More on the design: species or system rat. Particulars: Table 3; selectivity ratio of IC50 values. The protocol:
as §1

Data set [4] has as its target T2, DAT (Rattus norvegicus, UniProt P23977).
T2 construct: rat striatum was the source for DAT, and cerebral cortex for SERT and NET; from tissue; P2 synaptosomal fraction for uptake
The data set is described as follows: Inhibition of [3H]WIN 35,428 binding to DAT. The protocol:
as §1

The target of data set [5] is T1, SERT. The data set is described as follows: SERT uptake inhibition, [3H]5-HT. It counts as biochemical. The settings on record: Table 4; for IC50: rat brain, read-out: SERT uptake, IC50 [3H]5-HT; for blockade of both SERT and NET (SNRI profile), in words: in vitro data.
In data set [6] the target is T2, DAT. In words: Inhibition of [3H]DA uptake by DAT into rat striatal synaptosomes. The data set is classed as biochemical. Particulars: for IC50: Table 4, rat brain, read-out: DAT uptake, IC50 [3H]DA; for [3H]DA uptake/DAT binding: Table 3, ratio of IC50 values. The protocol: as §1
Where [7] appears, read: Table 2, average ± SEM, read-out: SERT binding, IC50 [3H]citalopram.
Where [8] appears, read: Table 2, average ± SEM, read-out: NET binding, IC50 [3H]nisoxetine.
The mark [9] stands for this setting: Table 2, average ± SEM of three to eight experiments, read-out: DAT binding, IC50, [3H]Win 35,428.
[10] abbreviates: Table 4, rat brain, read-out: DAT binding, IC50, [3H]Win 35,428.
Setting [11] is: Table 1, read-out: Inhibition of [3H]citalopram binding to SERT, IC50.
The mark [12] stands for this setting: Table 1, read-out: Inhibition of [3H]nisoxetine binding to NET, IC50.
Where [13] appears, read: Table 1, rat striatum, read-out: Inhibition of [3H]Win 35,428 binding to DAT IC50.

Entries after “also recorded” stand apart in the source; their conditions may differ. Where a name gives a salt, the structure may show the parent alone. Read-outs that look alike come from different tables or passages of the source.

T2 sequence (P23977 whole entry): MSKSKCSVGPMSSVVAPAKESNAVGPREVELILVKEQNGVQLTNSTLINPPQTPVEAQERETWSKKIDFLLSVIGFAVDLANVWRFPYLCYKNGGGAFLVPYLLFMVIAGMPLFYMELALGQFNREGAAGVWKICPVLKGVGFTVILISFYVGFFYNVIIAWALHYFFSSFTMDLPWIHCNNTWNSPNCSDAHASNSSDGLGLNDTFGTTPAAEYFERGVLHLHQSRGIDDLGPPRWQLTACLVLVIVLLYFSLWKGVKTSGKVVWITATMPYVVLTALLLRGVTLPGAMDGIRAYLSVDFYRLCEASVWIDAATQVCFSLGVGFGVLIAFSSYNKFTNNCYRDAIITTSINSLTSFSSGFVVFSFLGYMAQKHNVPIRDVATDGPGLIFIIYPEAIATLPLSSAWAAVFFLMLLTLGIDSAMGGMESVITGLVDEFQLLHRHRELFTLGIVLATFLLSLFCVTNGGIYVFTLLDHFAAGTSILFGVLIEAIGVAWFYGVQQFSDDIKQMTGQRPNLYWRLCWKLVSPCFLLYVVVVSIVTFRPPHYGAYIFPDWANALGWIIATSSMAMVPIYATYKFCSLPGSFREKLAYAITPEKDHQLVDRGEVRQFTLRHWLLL
T1 sequence (P31652 whole entry): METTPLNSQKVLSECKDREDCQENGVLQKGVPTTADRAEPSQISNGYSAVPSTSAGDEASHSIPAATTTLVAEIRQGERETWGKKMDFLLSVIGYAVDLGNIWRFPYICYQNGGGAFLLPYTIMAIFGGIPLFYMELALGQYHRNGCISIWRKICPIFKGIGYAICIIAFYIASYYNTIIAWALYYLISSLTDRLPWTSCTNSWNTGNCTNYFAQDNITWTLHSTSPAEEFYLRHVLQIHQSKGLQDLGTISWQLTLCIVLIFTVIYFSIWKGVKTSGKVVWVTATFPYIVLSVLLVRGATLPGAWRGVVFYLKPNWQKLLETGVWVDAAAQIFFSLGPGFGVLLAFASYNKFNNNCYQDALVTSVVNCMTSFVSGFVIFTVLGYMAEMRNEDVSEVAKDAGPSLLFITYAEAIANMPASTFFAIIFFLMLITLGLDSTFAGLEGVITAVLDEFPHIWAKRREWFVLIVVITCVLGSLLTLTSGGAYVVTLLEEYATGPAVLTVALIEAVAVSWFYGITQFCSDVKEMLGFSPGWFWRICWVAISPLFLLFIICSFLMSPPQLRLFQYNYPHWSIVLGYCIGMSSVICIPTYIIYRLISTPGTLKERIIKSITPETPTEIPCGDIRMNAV

As a reminder, the IC50 is the point on the concentration scale where inhibition reaches its midpoint. For `Fc1ccc(CCN[C@H]2CC[C@@H](C(c3ccccc3)c3ccccc3)OC2)cc1` (relative stereo) [Compound 16p, Cis-(6-benzhydryl-tetrahydropyran-3-yl)-[2-(4-fluoro-phenyl)-ethyl]-amine], the IC50 at SERT [1] (setting [7]) worked out at 3.95 µM; at NET [2] (setting [8]), 5.21 µM; at DAT [4] (setting [9]), 0.129 ± 0.058 µM. For the same compound, at SERT [1], the “SERT binding/DAT binding” value is listed as 30.6. In addition, the “NET binding/DAT binding” value in the data set on NET [3] was 40.4.
Regarding `Oc1ccc(CN[C@H]2CC[C@@H](C(c3ccccc3)c3ccccc3)OC2)cc1` [(−)-37a, cis-(3S,6S)-(6-benzhydryl-tetrahydropyran-3-yl)-(4-hydroxy-benzyl)-amine], the half-maximal inhibitory concentration (IC50) at SERT [5] came out at 0.042 ± 0.003 µM; on DAT [6], 0.114 ± 0.008 µM; on DAT [4] (setting [10]), 0.28 ± 0.008 µM. Further, the “blockade of both SERT and NET (SNRI profile), in words” value (“blockade of both SERT and NET” below) at SERT [5] was “potent blockers for both SERT and NET”; on SERT [5] (listed as (−)37a), “dual transport blockers”.
On to `c1ccc(C(c2ccccc2)C2CCC(NCc3c[nH]c4ccccc34)CO2)cc1` (stereo not drawn) [Compound 16f, Cis-(6-benzhydryl-tetrahydropyran-3-yl)-(3-indole-methyl)-amine], for which the concentration for half-maximal inhibition (IC50) at SERT [1] (setting [7]) amounted to 2.59 µM; on NET [2] (read-out: IC50 for the NET), 1.86 µM; at DAT [4] (read-out: IC50 at the DAT) it was 0.794 µM. Moreover, the “SERT binding/DAT binding” value on SERT [1] is 3.3. For the same compound, in the data set on NET [3], the “NET binding/DAT binding” value is listed as 2.3.
In the case of `c1ccc(CN[C@H]2CC[C@@H](C(c3ccccc3)c3ccccc3)NC2)cc1` [Compound 1a, reference compound], on NET [2] (read-out: Inhibition of [3H]nisoxetine binding to NET, IC50), the IC50 was 0.612 ± 0.13 µM.
For `c1ccc(C(c2ccccc2)[C@@H]2CC[C@H](NCc3ccc4[nH]ccc4c3)CO2)cc1` (relative stereo) [Compound 16n, Cis-(6-benzhydryl-tetrahydropyran-3-yl)-(1H-iodo-5-ylmethyl)-amine], the IC50 is 0.325 ± 0.02 µM on SERT [1] (setting [7]); 0.056 ± 0.006 µM on NET [2] (setting [8]); 0.587 ± 0.066 µM at DAT [4] (read-out: DAT binding, IC50, [3H]Win 35,428). Also, the “SERT binding/DAT binding” value on SERT [1] is listed as 0.55. Further, the “potency at NET, in words” value on NET [2] is “high affinity; also recorded: strong selective potency at NET”. Moreover, the “NET binding/DAT binding” value in the data set with NET [3] was 0.09.
Consider `N#Cc1ccc(CN[C@H]2CC[C@@H](C(c3ccccc3)c3ccccc3)OC2)cc1` (relative stereo) [Compound 16c, Cis-(6-benzhydryl-tetrahydropyran-3-yl)-(4-cyano-benzyl)-amine], for which the half-maximal inhibitory concentration (IC50) at SERT [1] (setting [7]) was found to be 0.863 ± 0.052 µM; on NET [2] (setting [8]), 1.58 µM. Further, the “[3H]DA uptake/DAT binding” value on DAT [6] turned out to be 1.1.
Consider `Fc1ccc(CN[C@H]2CCO[C@@H](C(c3ccccc3)c3ccccc3)C2)cc1` (relative stereo) [Compound 7a, cis-(2-benzhydryl-tetrahydropyran 4-yl)-(4-fluorobenzyl)-amine], for which the IC50 is 3.31 µM on SERT [1] (setting [11]); 3.31 µM on SERT [1] (setting [7]); 5.1 µM on NET [2] (setting [12]); 5.1 µM on NET [2] (setting [8]); 1.3 µM at DAT [4] (setting [13]); 1.3 µM at DAT [4] (setting [9]). Besides, on SERT [1], the “SERT binding/DAT binding” value is recorded as 2.5. Moreover, in the data set on NET [3], the “NET binding/DAT binding” value is reported as 3.9. Also, the “activity at DAT, in words” value at DAT [4] is given as “much weaker at DAT”.
Take `O[C@@H]1C[C@@H](C(c2ccccc2)c2ccccc2)OC[C@H]1NCc1ccc2[nH]ccc2c1` [(−)-32b, (2S,4R,5R)-2-benzhydryl-5-[(1H-indol-5-ylmethyl)-amino]-tetrahydropyran-4-ol]: the “blockade of both SERT and NET” value was “potent blockers for both SERT and NET” at SERT [5]; “dual transport blockers” on SERT [5] (listed as (−)32b). The IC50 at DAT [6] was determined as 0.162 ± 0.011 µM; at DAT [4] (setting [10]), 0.705 ± 0.176 µM.
Turning to `Oc1ccc(CN[C@@H]2CC[C@H](C(c3ccccc3)c3ccccc3)OC2)cc1` [(+)-37a, cis-(3R,6R)-(6-benzhydryl-tetrahydropyran-3-yl)-(4-hydroxy-benzyl)-amine], the IC50 was 0.209 ± 0.025 µM on SERT [5], 0.0907 ± 0.004 µM on DAT [6] and 0.141 ± 0.0022 µM at DAT [4] (setting [10]).
For the compound `Nc1ccc(CN[C@H]2CC[C@@H](C(c3ccccc3)c3ccccc3)OC2)cc1` (relative stereo) [Compound 16o, Cis-(6-benzhydryl-tetrahydropyran-3-yl)-(4-amino-benzyl)-amine], on NET [2], the “potency at NET, in words” value is listed as “high potency at NET; also recorded: high potency for the NET”. Also, the “[3H]DA uptake/DAT binding” value on DAT [6] was 1.02.
Usually melting point stands for the temperature, or range, at which the solid turns liquid. For `Fc1ccc(CN[C@H]2CC[C@@H](C(c3ccccc3)c3ccccc3)OC2)cc1F` (relative stereo) (as salt: oxalate) [Compound 16j, Cis-(6-benzhydryl-tetrahydropyran-3-yl)-(3,4-difluoro-benzyl)-amine], the melting point was in the range of 234 to 235 °C.
The same measure, in the same setting: for `c1ccc(CN[C@H]2CC[C@@H](C(c3ccccc3)c3ccccc3)OC2)cc1` (relative stereo) (as salt: oxalate) [Compound 16k, Cis-(6-benzhydryl-tetrahydropyran-3-yl)-benzyl-amine] the value was 208 to 210 °C; for `Ic1ccc(CN[C@H]2CC[C@@H](C(c3ccccc3)c3ccccc3)OC2)cc1` (relative stereo) (as salt: oxalate) [Compound 16m, Cis-(6-benzhydryl-tetrahydropyran-3-yl)-(4-iodo-benzyl)-amine], 243 to 244 °C.
For `O[C@@H]1C[C@@H](C(c2ccccc2)c2ccccc2)OC[C@H]1NCc1ccccc1` [(−)-29d, (2S,4R,5R)-2-benzhydryl-5-benzylamino-tetrahydro-pyran 4-ol], the results for the IC50 on SERT [5] and on DAT [6] were 0.862 ± 0.036 µM and 0.6 ± 0.079 µM, respectively.
`O[C@@H]1C[C@@H](C(c2ccccc2)c2ccccc2)OC[C@H]1NCCc1ccc(F)cc1` (as salt: oxalate) [(−)-29c, (2S,4R,5R)-2-benzhydryl-5-[2-(4-fluoro-phenyl)-ethylamino]-tetrahydropyran-4-ol] registered a melting point of 205 to 207 °C.
Turning to `Fc1ccc(CN[C@@H]2CCO[C@@H](C(c3ccccc3)c3ccccc3)C2)cc1` (relative stereo) [Compound 7b, trans-(2-benzhydryl-tetrahydropyran-4-yl)-(4-fluoro-benzyl)-amine], the IC50 at SERT [1] (setting [11]) is 4.78 µM; at SERT [1] (setting [7]), 4.78 µM; at NET [2] (setting [12]) it was 17.5 µM; on NET [2] (setting [8]), 17.5 µM; at DAT [4] (setting [13]) it was 1.58 µM; on DAT [4] (setting [9]) it was 1.58 µM. Also, the “SERT binding/DAT binding” value on SERT [1] came out at 3. Besides, in the data set with NET [3], the “NET binding/DAT binding” value is listed as 11.1. Also, at DAT [4], the “activity at DAT, in words” value was “much weaker at DAT”.
`O[C@@H]1C[C@@H](C(c2ccccc2)c2ccccc2)OC[C@H]1NCc1ccccc1` (as salt: oxalate) [(−)-29d, (2S,4R,5R)-2-benzhydryl-5-benzylamino-tetrahydro-pyran 4-ol]: the melting point lay within 250 to 252 °C.
Turning to `Oc1ccc(CN[C@H]2CC[C@@H](C(c3ccccc3)c3ccccc3)OC2)cc1` (relative stereo) [Compound 16h, Cis-(6-benzhydryl-tetrahydropyran-3-yl)-(4-hydroxy-benzyl)-amine], the results for the half-inhibitory concentration (IC50) on SERT [1] (setting [7]) and on DAT [4] (read-out: IC50 at the DAT) were 0.398 ± 0.022 µM and 0.0784 µM, respectively. For the same compound, the “potency at NET, in words” value at NET [2] was “high potency for the NET”.
In the case of `COc1ccc(CN[C@@H]2CO[C@H](C(c3ccccc3)c3ccccc3)C[C@H]2O)cc1` [(−)-29a, (2S,4R,5R)-2-benzhydryl-5-(4-methoxy-benzylamino)-tetrahydropyran-4-ol], the “blockade of both SERT and NET” value at SERT [5] was “potent blockers for both SERT and NET”; on SERT [5] (listed as (−)29a), “dual transport blockers”.
Take `COc1ccc(CN[C@H]2CO[C@@H](C(c3ccccc3)c3ccccc3)C[C@@H]2O)cc1` (as salt: oxalate) [(+)-29a, (2R,4S,5S)-2-benzhydryl-5-(4-methoxy-benzylamino)-tetrahydro-pyran-4-ol]: the melting point was 230 to 232 °C.
For `COc1cc(CN[C@@H]2CO[C@H](C(c3ccccc3)c3ccccc3)C[C@H]2O)cc(OC)c1` (as salt: oxalate) [(−)-29f, (2S,4R,5R)-2-benzhydryl-5-(3,5-dimethoxy-benzylamino)-tetrahydropyran-4-ol], the melting point lay within 245 to 247 °C.
On to `O[C@H]1C[C@H](C(c2ccccc2)c2ccccc2)OC[C@@H]1NCc1ccccc1` [(+)-29d, (2R,4S,5S)-2-benzhydryl-5-benzylamino-tetrahydro-pyran-4-ol], for which the IC50 on SERT [5] turned out to be 6.12 ± 0.73 µM; on DAT [6], 0.341 ± 0.043 µM; on DAT [4] (setting [10]), 0.596 ± 0.084 µM.
